Laboratory results published in patent US9085606B2, “Beta amino acid derivatives as integrin antagonists” (Saint Louis University, priority 2012, dated 2015).

Columns and labels:
[1] = molecular target: T1, Recombinant human integrin αvβ1 (Homo sapiens, UniProt P05556+P06756); test: Solid Phase Receptor Assay for αvβ1 Function; conditions: binding to fibronectin-coated plate; read-out: αvβ1 SPRA IC50
T1 construct: purchased R&D Systems 6579-AV
Description: Solid Phase Receptor Assay for αvβ1 Function.
Wells were washed 3 times with 150 μl TBS+ and 150 μL of blocking buffer (TBS+ with 1% bovine serum albumin, Sigma A7906) were added. The plate was incubated for 1 hr at 37° C. and then washed 3× with TBS+ buffer. […] Compounds were diluted 1:100 into the integrin solution and 50 μL added to empty wells of the washed fibronectin-coated plate according to a standard template with each sample repeated in triplicate. After incubation for two hours at room temperature, the plate was washed 3× with 150 μL of TBS+ buffer. To each well, 50 μL of biotinylated anti-αv antibody (R&D Systems, BAF1219) at 1 μg/mL in TBS+/0.1% BSA were added and the plate covered and incubated for 1 hr at room temperature. After washing the plate 3× with 150 μL of TBS+ buffer, 50 μL of streptavidin-conjugated horseradish peroxidase (R&D Systems, DY998) diluted in TBS+ blocking buffer were added to the wells and the plate incubated for 20 min at room temperature. The plate was washed 3× with TBS+ buffer followed by 50 μL of TMB substrate (Sigma, T4444) added to each well and the plate incubated for 20 min at room temperature. The reaction was optionally stopped with 25 μL of Stop Solution (Sigma S5689). Plates were read by colorimetric detection at 650 nm wavelength using a Tecan Safire II plate reader.

[2] = molecular target: T2, Recombinant human integrin αvβ8 (Homo sapiens, UniProt P06756+P26012); test: Solid Phase Receptor Assay for αvβ8 Function; conditions: binding to LAP-coated plate; read-out: αvβ8 SPRA IC50
T2 construct: purchased R&D Systems 4135-AV
T2 sequence (P06756 31-992 limits assumed): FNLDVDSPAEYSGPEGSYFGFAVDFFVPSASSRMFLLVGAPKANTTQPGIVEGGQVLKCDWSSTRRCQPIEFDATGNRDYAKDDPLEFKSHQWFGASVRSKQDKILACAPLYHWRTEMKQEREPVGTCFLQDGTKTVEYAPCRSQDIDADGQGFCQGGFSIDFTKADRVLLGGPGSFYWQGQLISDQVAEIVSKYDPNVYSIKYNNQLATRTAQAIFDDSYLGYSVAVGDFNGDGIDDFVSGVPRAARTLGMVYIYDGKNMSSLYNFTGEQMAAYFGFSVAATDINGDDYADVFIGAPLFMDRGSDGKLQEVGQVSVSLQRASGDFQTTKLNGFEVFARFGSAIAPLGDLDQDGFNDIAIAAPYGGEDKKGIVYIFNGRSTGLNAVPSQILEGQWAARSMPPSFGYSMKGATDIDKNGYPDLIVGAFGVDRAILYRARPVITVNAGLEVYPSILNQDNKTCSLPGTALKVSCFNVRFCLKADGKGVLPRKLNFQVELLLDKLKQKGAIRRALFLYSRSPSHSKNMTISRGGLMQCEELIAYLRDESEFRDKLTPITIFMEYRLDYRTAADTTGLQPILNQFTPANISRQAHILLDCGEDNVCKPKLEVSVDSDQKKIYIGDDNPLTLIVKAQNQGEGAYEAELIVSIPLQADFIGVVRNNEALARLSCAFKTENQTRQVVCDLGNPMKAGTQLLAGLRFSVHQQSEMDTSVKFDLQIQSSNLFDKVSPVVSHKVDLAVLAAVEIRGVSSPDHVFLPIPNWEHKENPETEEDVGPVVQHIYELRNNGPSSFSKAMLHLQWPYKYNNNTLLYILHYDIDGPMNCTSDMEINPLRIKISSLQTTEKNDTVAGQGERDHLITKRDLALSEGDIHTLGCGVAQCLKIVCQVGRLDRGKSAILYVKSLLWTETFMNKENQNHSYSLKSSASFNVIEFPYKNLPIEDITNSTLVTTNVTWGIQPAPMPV
T2 sequence (P26012 43-684 limits assumed): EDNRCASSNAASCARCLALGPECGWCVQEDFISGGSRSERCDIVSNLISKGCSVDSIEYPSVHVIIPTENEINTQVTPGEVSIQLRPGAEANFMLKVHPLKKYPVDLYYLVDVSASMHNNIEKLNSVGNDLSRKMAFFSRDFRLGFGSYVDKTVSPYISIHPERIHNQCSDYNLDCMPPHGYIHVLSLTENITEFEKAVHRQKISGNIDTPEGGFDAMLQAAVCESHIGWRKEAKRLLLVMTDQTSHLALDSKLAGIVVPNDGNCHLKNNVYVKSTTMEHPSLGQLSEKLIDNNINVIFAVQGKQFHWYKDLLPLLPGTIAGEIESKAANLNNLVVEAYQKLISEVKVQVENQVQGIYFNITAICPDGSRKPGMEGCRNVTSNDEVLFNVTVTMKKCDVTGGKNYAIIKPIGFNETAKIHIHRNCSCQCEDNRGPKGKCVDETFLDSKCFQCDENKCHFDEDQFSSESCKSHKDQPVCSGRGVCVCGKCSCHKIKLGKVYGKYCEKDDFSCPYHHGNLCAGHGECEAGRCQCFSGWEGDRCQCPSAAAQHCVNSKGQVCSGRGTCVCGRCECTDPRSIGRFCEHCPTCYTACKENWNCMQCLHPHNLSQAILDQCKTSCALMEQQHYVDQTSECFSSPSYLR
Description: Solid Phase Receptor Assay for αvβ8 Function.
Wells were washed 3 times with 150 μL TBS+ and 150 μL of blocking buffer (TBS+ with 1% bovine serum albumin, Sigma A7906) were added. The plate was incubated for 1 hr at 37° C. and then washed 3× with TBS+. […] Compounds were diluted 1:100 into the integrin solution and 50 μL added to empty wells of the washed LAP-coated plate according to a standard template with each sample repeated in triplicate. After incubation for two hours at room temperature, the plate was washed 3× with 150 μL of TBS+. To each well, 50 μL of biotinylated anti-αv antibody (R&D Systems, BAF1219) at 1 μg/mL in TBS+/0.1% BSA were added and the plate was covered and incubated for 1 hr at room temperature. After washing the plate 3× with 150 μL of TBS+ buffer, 50 μL of streptavidin-conjugated horseradish peroxidase (R&D Systems, DY998) diluted in TBS+ blocking buffer were added to the wells and the plate incubated for 20 min at room temperature. The plate was washed 3× with TBS+ followed by 50 μL of TMB substrate (Sigma T4444) added to each well and the plate incubated for 20 min at room temperature. The reaction was optionally stopped with 25 μL of Stop Solution (Sigma S5689). Plates were read by colorimetric detection at 650 nm wavelength using a Tecan Safire II plate reader.

T1 sequence (P06756 31-992 limits assumed): as the sequence (P06756 31-992 limits assumed) above
T1 sequence (P05556 21-728 limits assumed): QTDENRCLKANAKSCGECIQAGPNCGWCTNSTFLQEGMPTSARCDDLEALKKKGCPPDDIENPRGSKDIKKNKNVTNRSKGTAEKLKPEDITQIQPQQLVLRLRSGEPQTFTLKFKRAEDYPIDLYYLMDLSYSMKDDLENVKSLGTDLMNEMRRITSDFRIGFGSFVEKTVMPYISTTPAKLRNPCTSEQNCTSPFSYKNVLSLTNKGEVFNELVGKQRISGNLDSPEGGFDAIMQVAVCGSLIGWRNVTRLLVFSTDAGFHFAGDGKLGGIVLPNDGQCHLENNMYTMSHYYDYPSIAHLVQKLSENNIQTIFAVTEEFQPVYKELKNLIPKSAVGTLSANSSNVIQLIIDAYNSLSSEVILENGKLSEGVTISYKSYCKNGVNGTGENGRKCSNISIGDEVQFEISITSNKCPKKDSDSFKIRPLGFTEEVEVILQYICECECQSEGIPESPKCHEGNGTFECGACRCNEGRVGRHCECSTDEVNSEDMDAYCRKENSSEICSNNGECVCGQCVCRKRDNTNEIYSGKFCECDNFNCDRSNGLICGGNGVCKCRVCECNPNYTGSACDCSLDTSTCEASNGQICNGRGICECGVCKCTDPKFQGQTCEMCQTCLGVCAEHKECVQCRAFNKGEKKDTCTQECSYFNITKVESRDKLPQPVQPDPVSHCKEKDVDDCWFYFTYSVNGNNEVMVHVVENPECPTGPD

Row | Compound | IC50 [1] | IC50 [2]
1 | CC(C)(O)c1cc([C@H](CC(=O)O)NC(=O)CNC(=O)c2cc(O)cc(NC3=NCC(O)CN3)c2)cc(C(F)(F)F)c1 (stereo partly drawn) [Example 13, (3S)-3-(2-(3-hydroxy-5-((5-hydroxy-1,4,5,6-tetrahydropyrimidin-2-yl)amino)benzamido)acetamido)-3-(3-(2-hydroxypropan-2-yl)-5-(trifluoromethyl)phenyl)propanoic acid] | 4 nM | 0.6 nM
2 | CC(C)(C)c1cc(Br)cc([C@H](CC(=O)O)NC(=O)CNC(=O)c2cncc(NC(=N)N)c2)c1 [Example 6, (S)-3-(3-bromo-5-(tert-butyl)phenyl)-3-(2-(5-guanidinonicotinamido)acetamido) propanoic acid] | 4.7 nM | 0.3 nM
3 | CC(C)(O)c1cc(Br)cc([C@H](CC(=O)O)NC(=O)CNC(=O)c2cc(O)cc(NC3=NCC(O)CN3)c2)c1 (stereo partly drawn) [Example 3, (3S)-3-(3-bromo-5-(2-hydroxypropan-2-yl)phenyl)-3-(2-(3-hydroxy-5-((5-hydroxy-1,4,5,6-tetrahydropyrimidin-2-yl)amino)benzamido)acetamido)propanoic acid] | 2.2 nM | 0.4 nM
4 | CC(C)(CO)c1cc(Cl)cc([C@H](CC(=O)O)NC(=O)CNC(=O)c2cc(O)cc(NC3=NCC(O)CN3)c2)c1 (stereo partly drawn) [Example 15, (3S)-3-(3-chloro-5-(1-hydroxy-2-methylpropan-2-yl)phenyl)-3-(2-(3-hydroxy-5-((5-hydroxy-1,4,5,6-tetrahydropyrimidin-2-yl)amino)benzamido)acetamido)propanoic acid] | 2.9 nM | 0.3 nM
5 | CC(C)(C)c1cc(Br)cc([C@H](CC(=O)O)NC(=O)CNC(=O)c2cccc(NC(=N)N)c2)c1 [Example 5, (S)-3-(3-bromo-5-(tert-butyl)phenyl)-3-(2-(3-guanidinobenzamido)acetamido) propanoic acid] | 3.2 nM | 0.2 nM
6 | O=C(O)C[C@H](NC(=O)CNC(=O)c1cc(O)cc(NC2=NCC(O)CN2)c1)c1cc(Cl)cc(C2(CO)CCOCC2)c1 (stereo partly drawn) [Example 17, (3S)-3-(3-chloro-5-(4-(hydroxymethyl)tetrahydro-2H-pyran-4-yl)phenyl)-3-(2-(3-hydroxy-5-((5-hydroxy-1,4,5,6-tetrahydropyrimidin-2-yl)amino)benzamido)acetamido)propanoic acid] | 3 nM | 0.4 nM
7 | CC(C)(C)c1cc(Br)cc([C@H](CC(=O)O)NC(=O)CNC(=O)c2cccc(NC3=NCCN3)c2)c1 [Example 7, (S)-3-(3-bromo-5-(tert-butyl)phenyl)-3-(2-(3-((4,5-dihydro-1H-imidazol-2-yl)amino)benzamido)acetamido)propanoic acid] | 2.7 nM | 0.1 nM
8 | COCC(C)(C)c1cc(Cl)cc([C@H](CC(=O)O)NC(=O)CNC(=O)c2cc(O)cc(NC3=NCC(O)CN3)c2)c1 (stereo partly drawn) [Example 14, (3S)-3-(3-chloro-5-(1-methoxy-2-methylpropan-2-yl)phenyl)-3-(2-(3-hydroxy-5-((5-hydroxy-1,4,5,6-tetrahydropyrimidin-2-yl)amino)benzamido)acetamido)propanoic acid] | 2.4 nM | 0.3 nM
9 | CC(C)(C)c1cc(C#N)cc([C@H](CC(=O)O)NC(=O)CNC(=O)c2cc(O)cc(NC3=NCC(O)CN3)c2)c1 (stereo partly drawn) [Example 12, (3S)-3-(3-(tert-butyl)-5-cyanophenyl)-3-(2-(3-hydroxy-5-((5-hydroxy-1,4,5,6-tetrahydro-pyrimidin-2-yl)amino)benzamido)acetamido)propanoic acid] | 2 nM | 0.2 nM
10 | O=C(O)C[C@H](NC(=O)CNC(=O)c1cc(O)cc(NC2=NCC(O)CN2)c1)c1cc(Cl)cc(C2(CF)CCOCC2)c1 (stereo partly drawn) [Example 20, (3S)-3-(3-chloro-5-(4-(fluoromethyl)tetrahydro-2H-pyran-4-yl)phenyl)-3-(2-(3-hydroxy-5-((5-hydroxy-1,4,5,6-tetrahydropyrimidin-2-yl)amino)benzamido)acetamido)propanoic acid] | 4.9 nM | 0.5 nM
11 | CC(C)(C)c1cc(Br)c(O)c([C@H](CC(=O)O)NC(=O)CNC(=O)c2cc(O)cc(NC3=NCC(O)CN3)c2)c1 (stereo partly drawn) [Example 1, (3S)-3-(3-bromo-5-(tert-butyl)-2-hydroxyphenyl)-3-(2-(3-hydroxy-5-((5-hydroxy-1,4,5,6-tetrahydropyrimidin-2-yl)amino)benzamido)acetamido)propanoic acid] | 2.1 nM | 0.1 nM
12 | CC(C)(C)c1cc(-c2cncnc2)cc([C@H](CC(=O)O)NC(=O)CNC(=O)c2cc(O)cc(NC3=NCC(O)CN3)c2)c1 (stereo partly drawn) [Example 19, (3S)-3-(3-(tert-butyl)-5-(pyrimidin-5-yl)phenyl)-3-(2-(3-hydroxy-5-((5-hydroxy-1,4,5,6-tetrahydropyrimidin-2-yl)amino)benzamido)acetamido)propanoic acid] | 4.1 nM | 0.4 nM
13 | CC(C)(O)c1cc(Cl)cc([C@H](CC(=O)O)NC(=O)CNC(=O)c2cc(O)cc(NC3=NCC(O)CN3)c2)c1 (stereo partly drawn) [Example 4, (3S)-3-(3-chloro-5-(2-hydroxypropan-2-yl)phenyl)-3-(2-(3-hydroxy-5-((5-hydroxy-1,4,5,6-tetrahydropyrimidin-2-yl)amino)benzamido)acetamido)propanoic acid] | 1.7 nM | 0.6 nM
14 | CC(C)(C)c1cc(Br)cc([C@H](CC(=O)O)NC(=O)CNC(=O)c2cc(O)cc(NC3=NCCN3)c2)c1 [Example 9, (S)-3-(3-bromo-5-(tert-butyl)phenyl)-3-(2-(3-((4,5-dihydro-1H-imidazol-2-yl)amino)-5-hydroxybenzamido)acetamido)propanoic acid] | 2.4 nM | 0.1 nM
15 | CC(C)(C#N)c1cc(Br)cc([C@H](CC(=O)O)NC(=O)CNC(=O)c2cc(O)cc(NC3=NCC(O)CN3)c2)c1 (stereo partly drawn) [Example 11, (3S)-3-(3-bromo-5-(2-cyanopropan-2-yl)phenyl)-3-(2-(3-hydroxy-5-((5-hydroxy-1,4,5,6-tetrahydropyrimidin-2-yl)amino)benzamido)acetamido)propanoic acid] | 2.8 nM | 0.2 nM
16 | CC(C)(C)c1cc(-c2cccnc2)cc([C@H](CC(=O)O)NC(=O)CNC(=O)c2cc(O)cc(NC3=NCC(O)CN3)c2)c1 (stereo partly drawn) [Example 18, (3S)-3-(3-(tert-butyl)-5-(pyridin-3-yl)phenyl)-3-(2-(3-hydroxy-5-((5-hydroxy-1,4,5,6-tetrahydropyrimidin-2-yl)amino)benzamido)acetamido)propanoic acid] | 3.4 nM | 0.3 nM
17 | CC(C)(C)c1cc(Br)cc([C@H](CC(=O)O)NC(=O)CNC(=O)c2cncc(NC3=NCC(O)CN3)c2)c1 (stereo partly drawn) [Example 8, (3S)-3-(3-bromo-5-(tert-butyl)phenyl)-3-(2-(5-((5-hydroxy-1,4,5,6-tetrahydropyrimidin-2-yl)amino)nicotinamido)acetamido)propanoic acid] | 3 nM | 0.1 nM
18 | CC(C)(C)c1cc(Br)cc([C@H](CC(=O)O)NC(=O)CNC(=O)c2cc(O)cc(NC3=NCC(O)CN3)c2)c1O (stereo partly drawn) [Example 2, (3S)-3-(5-bromo-3-(tert-butyl)-2-hydroxyphenyl)-3-(2-(3-hydroxy-5-((5-hydroxy-1,4,5,6-tetrahydropyrimidin-2-yl)amino)benzamido)acetamido)propanoic acid] | 2.2 nM | 0.1 nM
19 | CC(C)(C)c1cc([C@H](CC(=O)O)NC(=O)CNC(=O)c2cncc(NC(=N)N)c2)cc(C(C)(C)C)c1 [Example 10, (S)-3-(3,5-di-tert-butylphenyl)-3-(2-(5-guanidinonicotinamido)acetamido)propanoic acid] | 2.1 nM | 0.2 nM
20 | COCC1(c2cc(Cl)cc([C@H](CC(=O)O)NC(=O)CNC(=O)c3cc(O)cc(NC4=NCC(O)CN4)c3)c2)CCOCC1 (stereo partly drawn) [Example 16, (3S)-3-(3-chloro-5-(4-(Methoxymethyl)tetrahydro-2H-pyran-4-yl)phenyl)-3-(2-(3-hydroxy-5-((5-hydroxy-1,4,5,6-tetrahydropyrimidin-2-yl)amino)benzamido)acetamido)propanoic acid] | 3.3 nM | 0.4 nM
